# Experimental data as given in patent EP2753300B1, “COMBINATION OF CARRAGEENAN AND C-GLYCOSIDE AND USES THEREOF” (L'Oréal, priority 2011, dated 2013).
# Tested on: épidermes reconstruits d'Episkin
# Test: Maturation of the cornified envelope: count of mature envelopes (involucrin immunolabelling / Nile Red) after 7 days of treatment of reconstructed epidermis
# Format: cell-based
# Details: 168 h; C-glycoside 2,5% (p/v) alone; 30µl at J7, J9, J10, J13; read-out J14; read-out: augmentation du taux d'enveloppes cornées matures par rapport au témoin eau (Moy)
# From the text: Les épidermes reconstruits d'Episkin ont été utilisés pour évaluer l'impact de molécules sur la maturation de l'enveloppe cornée.
# Les Episkin J7 ont été cultivés avec le carraghénane et les associations carraghénane + C-BETA-D-XYLOPYRANOSIDE-2-HYDROXY-PROPANE (HYDROXYPROPYL TETRAHYDROPYRANTRIOL) pendant 7 jours. Après isolement du stratum, les enveloppes cornées sont extraites.
# Trois types d'enveloppes cornées, matures, intermédiaires et immatures sont identifiés et comptées par un logiciel d'analyse d'image développé spécifiquement. […]
# Les lames immunomarquées sont visionnées sous microscope (DM6000B Leica) suivant 2 modes d'observation : contraste de phase et fluorescence.
# Le contraste de phase fournit une image en niveau de gris nous permettant de visualiser l'ensemble des cellules présentes dans le champ. Le mode fluorescence (jeu de filtercube) est utilisé pour visualiser les fluorochromes fixées à l'échantillon : • Le Nile Red est une sonde fluorescente permettant de localiser les zones hydrophobes plus particulièrement les lipides. […]
compound,measurement,value
"CC(O)C[C@@H]1OC[C@@H](O)[C@H](O)[C@H]1O (stereo partly drawn) [C-glycoside, C-β-D-xylopyranoside-2-hydroxy-propane]",activation at 25000 µg/mL,22%
